Results as given in patent US5053006A, “Method for the permanent occlusion of arteries” (priority 1990, dated 1991).
Several values for one entry are separate records, joined by “and”; a condition that tells them apart may be missing. Equal entries are not always repeated.

Key:
corneal neovasculature = format: in vivo, New Zealand white rabbit
Excerpt: (§1) Nine New Zealand white strain rabbits weighting 1 to 2 kg were rendered hypercholesterolemic by foods that contained high levels of cholesterol, as described in Stock et. al., Arch. Ophthalmol., 103:726-730, 1985; and Mendelsohn et al., Ophthalmic Surg., 17:502-508, 1986. Eight days after commencement of the high-cholesterol diet, corneal sutures were implanted in both eyes according to the surgical procedure described in Mendelsohn et al., Ophthalmic Surg., 17:502-508, 1986.
(§2) On day 22, slit-lamp photographs and fluorescein angiograms were obtained of all corneas (Mendelsohn et al., Arch. Ophthalmol., 105:983-988, 1987, the disclosure of which is hereby incorporated by reference and relied upon). On the next day, one eye of each rabbit underwent laser surgery, with the other eye serving as a comparative control. Rose bengal dye was dissolved at a concentration of 30 mg/ml in 0.9% saline solution. For the initial injection, the dye solution was administered at a total body concentration of 45 mg/kg. For the two animals in which the procedure took longer than 25 minutes, a booster injection of 15 mg/kg was administered. Irradiations of corneal vessels were carried out with an argon ion laser (Model 95, Cooper Laser-Sonica, Sunnyvale, Calif.) operated in the TEM00 mode at 514.5 nm. The beam was directed toward an aluminized mechanical shutter (AW Vincent Associates, Rochester, NY), which reflected it at a right angle through a 514.5-nm custom interference filter with a transmittance of 92% (Omega Optical, Brattleboro, VT) and then through a fused silica lens with a focal length of 7.5 cm for focusing into a 2.5-m fiberoptic cable 400 μm in diameter. In the optical fiber, the gaussian input beam profile was converted into an output beam. The output was collimated by a plano convex lens 3.5 cm in focal length and focused with a plano convex lens with a focal length of 1.0 cm. The lenses were mounted in a beam telescope attached to an X-Y positioning device (Daedal Inc., Harrison City, Pa.). The beam diameter was measured with a calibrated reticle in the ocular of a ×20 operating microscope. By observing, through a 514.5-nm rejection filter, the fluorescence of a white card impregnated with rhodamine B, the minimum diameter of the organe fluorescent spot at the focal point was determined to be 63 μm. Combining the transmission efficiencies of the three uncoated lenses (92% per lens, 76% total transmission) with those of the optical fiber and interference filter yielded a system transmission efficiency of 61.5%. This reduced the incident power level of the laser from 215 mW to an effective power level of 132 mW; this corresponded to an incident intensity at the focal point of 4.23 kW/cm^2 . During shutter closure, irradiations were carried out in 0.2-s intervals. When the shutter was opened, the low-power beam, which was reflected off an optical flat and through the optical system, was used for aligning the next vessel selected for irradiation.
One eye of each rabbit was subjected to laser applications that were directed toward the vascular branching points of the limbal and corneal feeder vessels adjacent to the sites of lipid deposits. The irradiated blood vessel segment was observed through the ×20 operating microcope fitted with the 514.5-nm rejection band interference filter. Initially, the irradiated segment appeared yellow-orange because the fluorescence of rose bengal had been absorbed into erythrocyte plasma membranes and plasma proteins. As platelets accumulated, the fluorescence became yellowish and less intense. The color gradually disappeared due to the exclusion of red blood cells, indicating occlusion of the vessel. A striking event that preceded the thrombus was intense vasoconstriction at the site of irradiation. Constriction of the vessel could be observed following the initial one to three laser shots in each segment. […]

corneal cholesterol = assay: Corneal cholesterol content after photothrombosis (Example 6); format: in vivo, New Zealand white rabbit; settings: for Corneal Cholesterol Concentration, Difference Between Treated and Untreated Eyes / Corneal Cholesterol Concentration, Difference Between Treated and Untreated Eyes, %: individual rabbit
Excerpt: as §1, §2
One eye of each rabbit was subjected to laser applications that were directed toward the vascular branching points of the limbal and corneal feeder vessels adjacent to the sites of lipid deposits. […] Initially, the irradiated segment appeared yellow-orange because the fluorescence of rose bengal had been absorbed into erythrocyte plasma membranes and plasma proteins. As platelets accumulated, the fluorescence became yellowish and less intense. […]

[1] = rat, in vivo; cited from earlier work
common carotid artery = assay: Argon laser photothrombotic occlusion of common carotid artery (Example 1); format: in vivo, rat (male Wistar); settings: 514.5 nm argon laser
Excerpt: Male Wistar rats, each weighing 280 to 330 gm, were anesthetized with 1.5% halothane and maintained on a 70:30 mixture of nitrous oxide and oxygen delivered by a closely fitting Mylar face mask (Watson et al., J. Neurosurg., 66:748-754, 1987, the disclosure of which is hereby incorporated by reference and relied upon). After separation of the temporal musculature, the middle cerebral artery was exposed via a small subtemporal craniectomy produced by a high-speed drill under an operating microscope; the dura was left intact. The common carotid arteries were exposed bilaterally by a midline incision extending from the mental process to the sternal notch; the sternocleidomastoid muscle was then retracted laterally to expose the underlying artery. Bleeding from the operative site was controlled with pressure and Gelfoam. The animal was then prepared for irradiation by filling the surgical cavity with saline, just submerging the exposed blood vessel. The saline solution was kept clear by frequent suction and irrigation. The femoral arteries were exposed by bilateral inguinal incisions and were prepared for irradiation in a fashion similar to that described above.
As assessed by observation of rose bengal fluorescence, thrombus development in the common carotid or femoral arteries followed a course similar to that observed in the middle cerebral artery, except that the thrombus appeared as a […] as viewed through the blood vessel wall. Intense scattering of the incident laser light was also noted at about the time that arterial pulsations at the level of irradiation ceased.
Ultrastructural studies were carried out at either 30 minutes or 7 days following irradiation. Animals were perfused transcardially with 0.9% sodium chloride solution followed by 2% paraformaldehyde and 2.5% glutaraldehyde in a 0.1 M sodium phosphate buffer. Perfusion pressure was monitored throughout the procedure and was maintained at 100 mm Hg. After perfusion fixation, the femoral and common carotid arteries were isolated and placed in fixative for an additional 2 hours. […]

[2] = common carotid and femoral arteries

Excerpt for arteries: The method utilizes an intravascular photochemical reaction to induce structural damage to normally non-thrombogenic vascular endothelium. The photochemical process is mediated by rose bengal, a potent photosensitizing dye injected into the bloodstream. Absorption by the injected rose bengal dye of light at a wavelength sufficient to electronically excite the rose bengal molecules induces photochemical injury via singlet oxygen peroxidation reactions in the vascular endothelium at the point of interaction of the rose bengal and the light beam, which is preferably a laser light beam.
A tunable argon ion laser (a Lexel Model 95 argon ion laser, manufactured by Cooper LaserSonics, Santa Clara, Calif.), operated at 514.5 nm, was used for the irradiation. The argon ion laser was focused according to a derived criterion (described below) to facilitate maximally efficient intraluminal growth of the occlusive thrombus. The middle cerebral artery was irradiated with 7.5 mW delivered either continuously or via a beam-chopper operated at 200 Hz (with 75 mW peak power, 10% duty cycle). The carotid and femoral arteries were each irradiated with a chopped beam at 1 W average power (2 W peak power chopped at 200 Hz and 50% duty cycle). […] The middle cerebral artery (diameter approximately 200 μm) was irradiated through a spherical lens of 39-cm focal length at a distance of 40 cm from the artery; with correction for optical reflection losses, the incident intensity was 16 W/sq cm. The femoral artery (diameter 670 μm) and common carotid artery (diameter 800 μm) were irradiated through a spherical lens of 61-cm focal length at distances of 42 and 26 cm from the artery, respectively. In each case, the average incident intensity, with correction for irradiation geometry, was approximately 160 W/sq cm.
A stock solution of rose bengal dye, 30 mg/ml in 0.9% saline, was made up for intravenous injection (via the tail vein) at a dose of 40 mg/kg. Before dye injection, the contralateral (control) arteries were irradiated for 15 minutes at the stated intensities. Following this, simultaneous intravenous infusion of the rose bengal solution (at 20 mg/kg/min over 2 minutes) and irradiation of the ipsilateral artery was begun. Five rats were used for common carotid artery irradiation and four for femoral artery irradiation. In the latter case, two rats received only 20 mg/kg. Middle cerebral artery irradiation was performed in a large series of approximately 70 animals.

O=C([O-])c1c(Cl)c(Cl)c(Cl)c(Cl)c1-c1c2cc(I)c(=O)c(I)c-2oc2c(I)c([O-])c(I)cc12.[Na+].[Na+] [rose bengal]
No. of Laser Shots (corneal neovasculature; 60 mg/kg (45 mg/kg plus booster 15 mg/kg 25 minutes later), individual rabbit): 86 and 106 | treated corneal vessels occluded (corneal neovasculature; 21 days after laser): about 95% | fluorescein perfusion (corneal neovasculature; 21 days after laser, nine treated eyes): complete lack of perfusion | laser shots required, average (corneal neovasculature; average): 85 laser shots per quadrant | laser shots to vessel constriction (corneal neovasculature; each segment): one to three | acute and chronic inflammatory cells (corneal neovasculature; rabbit, in vivo): mild to moderate numbers | corneal edema or polymorphonuclear leukocyte infiltration (corneal neovasculature; rabbit, in vivo): does not produce corneal edema or polymorphonuclear leukocyte infiltration | inflammation along limbal vessels (corneal neovasculature; rabbit, in vivo): No signs of inflammation | new vessels formed in response to treatment (corneal neovasculature; rabbit, in vivo): nor were any new vessels formed | laser shots required to occlude the corneal neovasculature (corneal neovasculature; range): 58 to 106 laser shots per quadrant | times less incident intensity than photocoagulation (corneal neovasculature; vs photocoagulation): 8.5 times | times less total light exposure than photocoagulation (corneal neovasculature; vs photocoagulation): 27.5 times | time to occlusion (arteries; 35 kJ/sq cm large arteries, 3.5 kJ/sq cm small arteries): ≤ 3 min | distal extension of mixture of red blood cells and coagulum (arteries; [2]): at least 10 arterial diameters | thrombus composition (arteries; [2]): thrombus of mixed character | photochemically induced thrombotic occlusion (arteries; irradiated arteries of rats injected with rose bengal solution): always observed | Corneal Cholesterol Concentration, Difference Between Treated and Untreated Eyes (corneal cholesterol; 45 mg/kg): 0.144 g of Cholesterol/100 g of Corn and 0.007 g of Cholesterol/100 g of Corn and 0.076 g of Cholesterol/100 g of Corn and 0.149 g of Cholesterol/100 g of Corn and 0.105 g of Cholesterol/100 g of Corn and 0.129 g of Cholesterol/100 g of Corn and 0.058 g of Cholesterol/100 g of Corn | Corneal Cholesterol Concentration, Difference Between Treated and Untreated Eyes, % (corneal cholesterol; 45 mg/kg): -36.5% and -2.5% and -24.3% and -41.7% and -29.1% and -42.0% and -21.9% | Corneal Cholesterol Concentration, Difference Between Treated and Untreated Eyes (corneal cholesterol; 60 mg/kg (45 plus booster 15)): 0.219 g of Cholesterol/100 g of Corn and 0.206 g of Cholesterol/100 g of Corn | Corneal Cholesterol Concentration, Difference Between Treated and Untreated Eyes, % (corneal cholesterol; 60 mg/kg (45 plus booster 15)): -58.6% and -51.8% | average reduction of corneal cholesterol content (corneal cholesterol; laser-treated vs control eyes): 36% | half-life in blood [1]: two | complete occlusion, irradiation time (common carotid artery; 40 mg/kg i.v.): ≤ 3 min | energy fluence at occlusion (common carotid artery): about 35 kJ/sq cm | total energy deposited at occlusion (common carotid artery): 140 to 180 joules (J)
